Data from ChEMBL document CHEMBL1201862, “PubChem BioAssay data set” (2004).
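All cell lines were grown in 96-well plates and treated with compound for 48 hours. Here, GI50 denotes the concentration required for 50% inhibition of growth.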 Calls of active or inactive are those of the source. No stated cut-off is given here; in the data, active = GI50 up to about 1.1 µM and inactive = higher.

What was measured:
Assay in all cases: DTP human tumour cell line panel, 48 h
NCI-H460 = system: NCI-H460
HCC 2998 = system: HCC 2998
LOX IMVI = system: LOX IMVI
OVCAR-8 = system: OVCAR-8
ACHN = system: ACHN
OVCAR-3 = system: OVCAR-3
KM12 = system: KM12
SK-MEL-5 = system: SK-MEL-5
NCI-H522 = system: NCI-H522
PC-3 = system: PC-3
HCT-116 = system: HCT-116
MOLT-4 = system: MOLT-4
NCI-H226 = system: NCI-H226
HL-60 = system: HL-60
SNB-75 = system: SNB-75
HCT-15 = system: HCT-15
786-0 = system: 786-0
CAKI-1 = system: CAKI-1
TK-10 = system: TK-10
U-251 = system: U-251
MDA-MB-435 = system: MDA-MB-435
UACC-62 = system: UACC-62
IGROV-1 = system: IGROV-1
Malme-3M = system: Malme-3M
T47D = system: T47D
K562 = system: K562
RPMI-8226 = system: RPMI-8226
NCI/ADR-RES = system: NCI/ADR-RES
SK-MEL-28 = system: SK-MEL-28
SF-295 = system: SF-295
BT-549 = system: BT-549
UACC-257 = system: UACC-257
OVCAR-4 = system: OVCAR-4
EKVX = system: EKVX
COLO 205 = system: COLO 205
MDA-N = system: MDA-N
A498 = system: A498
MCF7 = system: MCF7
DU-145 = system: DU-145
M14 = system: M14
SF-268 = system: SF-268
OVCAR-5 = system: OVCAR-5
SK-MEL-2 = system: SK-MEL-2
SK-OV-3 = system: SK-OV-3
UO-31 = system: UO-31
NCI-H23 = system: NCI-H23
SN12C = system: SN12C
CCRF-CEM = system: CCRF-CEM
SF-539 = system: SF-539
HT-29 = system: HT-29
A549 = system: A549
MDA-MB-231 = system: MDA-MB-231
HOP-92 = system: HOP-92
SW-620 = system: SW-620
Hs-578T = system: Hs-578T
SNB-19 = system: SNB-19

COc1ccc(NC(=O)/C(=N/NC(N)=S)C2C(=O)NC(=S)NC2=O)c(OC)c1
GI50 (NCI-H460): > 100 µM (inactive)
GI50 (HCC 2998): > 100 µM (inactive)
GI50 (LOX IMVI): > 100 µM (inactive)
GI50 (OVCAR-8): > 100 µM (inactive)
GI50 (ACHN): > 100 µM (inactive)
GI50 (OVCAR-3): > 100 µM (inactive)
GI50 (KM12): > 100 µM (inactive)
GI50 (SK-MEL-5): > 100 µM (inactive)
GI50 (NCI-H522): > 100 µM (inactive)
GI50 (PC-3): > 100 µM (inactive)
GI50 (HCT-116): > 100 µM (inactive)
GI50 (MOLT-4): > 100 µM (inactive)
GI50 (NCI-H226): > 100 µM (inactive)
GI50 (HL-60): > 100 µM (inactive)
GI50 (SNB-75): > 100 µM (inactive)
GI50 (HCT-15): > 100 µM
GI50 (786-0): > 100 µM (inactive)
GI50 (CAKI-1): > 100 µM (inactive)
GI50 (TK-10): > 100 µM (inactive)
GI50 (U-251): > 100 µM (inactive)
GI50 (MDA-MB-435): > 100 µM (inactive)
GI50 (UACC-62): > 100 µM (inactive)
GI50 (IGROV-1): > 100 µM (inactive)
GI50 (Malme-3M): > 100 µM (inactive)
GI50 (T47D): > 100 µM (inactive)
GI50 (K562): > 100 µM (inactive)
GI50 (RPMI-8226): > 100 µM (inactive)
GI50 (NCI/ADR-RES): > 100 µM (inactive)
GI50 (SK-MEL-28): > 100 µM (inactive)
GI50 (SF-295): > 100 µM (inactive)
GI50 (BT-549): > 100 µM (inactive)
GI50 (UACC-257): > 100 µM (inactive)
GI50 (OVCAR-4): > 100 µM (inactive)
GI50 (EKVX): > 100 µM (inactive)
GI50 (COLO 205): > 100 µM (inactive)
GI50 (MDA-N): > 100 µM (inactive)
GI50 (A498): > 100 µM (inactive)
GI50 (MCF7): > 100 µM (inactive)
GI50 (DU-145): > 100 µM (inactive)
GI50 (M14): > 100 µM (inactive)
GI50 (SF-268): > 100 µM (inactive)
GI50 (OVCAR-5): > 100 µM (inactive)
GI50 (SK-MEL-2): > 100 µM (inactive)
GI50 (SK-OV-3): > 100 µM (inactive)
GI50 (UO-31): > 100 µM (inactive)
GI50 (NCI-H23): > 100 µM (inactive)
GI50 (SN12C): > 100 µM (inactive)
GI50 (CCRF-CEM): 62.2 µM (inactive)
GI50 (SF-539): > 100 µM (inactive)
GI50 (HT-29): > 100 µM (inactive)
GI50 (A549): > 100 µM (inactive)
GI50 (MDA-MB-231): > 100 µM (inactive)
GI50 (HOP-92): > 100 µM (inactive)
GI50 (SW-620): > 100 µM (inactive)
GI50 (Hs-578T): > 100 µM (inactive)
GI50 (SNB-19): > 100 µM (inactive)
